From ChEMBL document CHEMBL1201862, “PubChem BioAssay data set” (2004)
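Growth conditions: 96-well plates. Treatment: test compound, 48 hours, 5 concentrations. Analysis: linear interpolation between bracketing concentrations; unreached endpoints set to highest concentration. GI50: concentration for 50% inhibition of growth.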 Calls of active or inactive are those of the source. Cut-off read from the data, not from the text of the source: active = GI50 up to about 1.1 µM and inactive = higher.

Legend:
Assay in all cases: NCI-60 cell line screen, 48 h
[1] = test system: 786-0
[2] = test system: A498
[3] = test system: A549
[4] = test system: ACHN
[5] = test system: BT-549
[6] = test system: CCRF-CEM
[7] = test system: DU-145
[8] = test system: EKVX
[9] = test system: HCC 2998
[10] = test system: HCT-116
[11] = test system: HCT-15
[12] = test system: HL-60
[13] = test system: HOP-62
[14] = test system: HOP-92
[15] = test system: HT-29
[16] = test system: Hs-578T
[17] = test system: IGROV-1
[18] = test system: K562
[19] = test system: KM12
[20] = test system: M14
[21] = test system: MCF7
[22] = test system: MDA-MB-231
[23] = test system: MDA-MB-435
[24] = test system: MDA-N
[25] = test system: MOLT-4
[26] = test system: Malme-3M
[27] = test system: NCI-H226
[28] = test system: NCI-H23
[29] = test system: NCI-H460
[30] = test system: NCI/ADR-RES
[31] = test system: OVCAR-3
[32] = test system: OVCAR-5
[33] = test system: OVCAR-8
[34] = test system: PC-3
[35] = test system: RXF 393
[36] = test system: SF-268
[37] = test system: SF-295
[38] = test system: SF-539
[39] = test system: SK-MEL-28
[40] = test system: SK-MEL-2
[41] = test system: SK-MEL-5
[42] = test system: SK-OV-3
[43] = test system: SN12C
[44] = test system: SNB-19
[45] = test system: SR
[46] = test system: SW-620
[47] = test system: T47D
[48] = test system: TK-10
[49] = test system: U-251
[50] = test system: UACC-62
[51] = test system: UO-31
[52] = test system: CAKI-1
[53] = test system: COLO 205
[54] = test system: LOX IMVI
[55] = test system: NCI-H522
[56] = test system: OVCAR-4
[57] = test system: RPMI-8226
[58] = test system: SNB-75
[59] = test system: UACC-257

Measured: GI50

O=C(c1ccccc1)N1CCC(Nc2cccnc2)O1 (stereo unspecified)
> 100 µM: [11]
inactive: [1] > 100 µM | [2] > 100 µM | [3] > 100 µM | [4] > 100 µM | [5] > 100 µM | [6] > 100 µM | [7] > 100 µM | [8] > 100 µM | [9] 50.8 µM | [10] > 100 µM | [12] > 100 µM | [13] > 100 µM | [14] > 100 µM | [15] > 100 µM | [16] 7.64 µM | [17] > 100 µM | [18] > 100 µM | [19] > 100 µM | [20] > 100 µM | [21] > 100 µM | [22] > 100 µM | [23] > 100 µM | [24] > 100 µM | [25] > 100 µM | [26] 60.3 µM | [27] > 100 µM | [28] > 100 µM | [29] > 100 µM | [30] > 100 µM | [31] > 100 µM | [32] > 100 µM | [33] > 100 µM | [34] > 100 µM | [35] > 100 µM | [36] > 100 µM | [37] > 100 µM | [38] > 100 µM | [39] > 100 µM | [40] > 100 µM | [41] > 100 µM | [42] > 100 µM | [43] > 100 µM | [44] > 100 µM | [45] > 100 µM | [46] > 100 µM | [47] 92.9 µM | [48] > 100 µM | [49] > 100 µM | [50] > 100 µM | [51] > 100 µM

Cc1nc2sc(CCl)nn2c(=O)c1Cl
11.5 µM: [11]
inactive: [1] 10.6 µM | [3] 15.1 µM | [4] 15.7 µM | [5] 2.73 µM | [52] 11.2 µM | [6] 3.61 µM | [53] 16.7 µM | [7] 16.1 µM | [8] 11.1 µM | [9] 22 µM | [10] 13.4 µM | [12] 13.1 µM | [13] 17.6 µM | [14] 5.7 µM | [15] 12.9 µM | [16] 19.1 µM | [17] 15 µM | [18] 12.1 µM | [19] 11.9 µM | [54] 1.92 µM | [20] 12.1 µM | [21] 4.58 µM | [22] 20.5 µM | [23] 4.95 µM | [24] 11.4 µM | [25] 6.03 µM | [26] 11.2 µM | [27] 14.9 µM | [28] 17.4 µM | [29] 10.6 µM | [55] 3.15 µM | [30] 18.8 µM | [31] 15.9 µM | [56] 15.7 µM | [32] 15.1 µM | [33] 14 µM | [34] 12.3 µM | [57] 5.62 µM | [35] 4.57 µM | [36] 14.2 µM | [37] 16.6 µM | [38] 16.7 µM | [39] 12.8 µM | [40] 11.1 µM | [41] 5.07 µM | [42] 14.6 µM | [43] 12.3 µM | [44] 16.3 µM | [58] 10.9 µM | [45] 4.61 µM | [46] 10.4 µM | [47] 13.1 µM | [48] 12.5 µM | [49] 6.08 µM | [59] 12.3 µM | [50] 14 µM | [51] 14.2 µM

Cc1nn(C(=O)c2ccc(Cl)cc2)c2c1C(c1cccc([N+](=O)[O-])c1)SC(=N)N2 (stereo unspecified)
inactive: [1] > 10 µM | [3] > 10 µM | [4] > 10 µM | [5] > 10 µM | [52] > 10 µM | [6] > 10 µM | [53] > 10 µM | [7] > 10 µM | [8] > 10 µM | [9] > 10 µM | [10] > 10 µM | [12] > 10 µM | [13] > 10 µM | [14] > 10 µM | [15] > 10 µM | [16] > 10 µM | [17] > 10 µM | [18] > 10 µM | [19] > 10 µM | [54] > 10 µM | [20] > 10 µM | [21] > 10 µM | [22] > 10 µM | [23] > 10 µM | [24] > 10 µM | [25] > 10 µM | [26] > 10 µM | [27] > 10 µM | [28] > 10 µM | [29] > 10 µM | [55] > 10 µM | [30] > 10 µM | [31] > 10 µM | [56] > 10 µM | [32] > 10 µM | [33] > 10 µM | [34] > 10 µM | [57] > 10 µM | [35] > 10 µM | [36] > 10 µM | [37] > 10 µM | [38] > 10 µM | [39] > 10 µM | [40] > 10 µM | [41] > 10 µM | [42] > 10 µM | [43] > 10 µM | [44] > 10 µM | [58] > 10 µM | [45] > 10 µM | [46] > 10 µM | [47] > 10 µM | [48] > 10 µM | [49] > 10 µM | [59] > 10 µM | [50] > 10 µM
2.56 µM: [11]

O1C2C1C1OC1C1OC1C1OC21 (stereo unspecified)
inactive: [2] > 100 µM | [3] > 100 µM | [4] > 100 µM | [5] > 100 µM | [52] > 100 µM | [53] > 100 µM | [7] > 100 µM | [8] > 100 µM | [9] > 100 µM | [10] > 100 µM | [13] > 100 µM | [14] > 100 µM | [15] > 100 µM | [16] > 100 µM | [18] > 100 µM | [19] > 100 µM | [54] > 100 µM | [20] > 100 µM | [21] > 100 µM | [22] > 100 µM | [23] > 100 µM | [24] > 100 µM | [25] > 100 µM | [26] > 100 µM | [27] > 100 µM | [28] > 100 µM | [55] > 100 µM | [30] > 100 µM | [56] > 100 µM | [32] > 100 µM | [33] > 100 µM | [34] > 100 µM | [36] > 100 µM | [37] > 100 µM | [39] > 100 µM | [40] > 100 µM | [41] > 100 µM | [42] > 100 µM | [43] > 100 µM | [44] > 100 µM | [58] 11.6 µM | [45] > 100 µM | [47] > 100 µM | [48] > 100 µM | [49] > 100 µM | [59] > 100 µM | [50] > 100 µM | [51] > 100 µM
> 100 µM: [11]

Oc1ccc2c3c1OC1c4[nH]ncc4C[C@H]4[C@@H](C2)N(CC2CC2)CC[C@]314 (stereo partly specified)
> 100 µM: [11]
inactive: [1] > 100 µM | [3] > 100 µM | [4] > 100 µM | [5] > 100 µM | [52] > 100 µM | [6] > 100 µM | [53] > 100 µM | [7] > 100 µM | [8] > 100 µM | [9] > 100 µM | [10] > 100 µM | [12] > 100 µM | [13] > 100 µM | [14] > 100 µM | [15] > 100 µM | [16] > 100 µM | [17] > 100 µM | [18] 99.5 µM | [19] > 100 µM | [54] > 100 µM | [20] > 100 µM | [21] > 100 µM | [22] > 100 µM | [23] > 100 µM | [24] > 100 µM | [25] > 100 µM | [26] > 100 µM | [27] > 100 µM | [28] > 100 µM | [29] > 100 µM | [55] > 100 µM | [30] > 100 µM | [31] > 100 µM | [56] > 100 µM | [32] > 100 µM | [33] > 100 µM | [34] > 100 µM | [57] > 100 µM | [35] > 100 µM | [36] > 100 µM | [37] > 100 µM | [39] > 100 µM | [40] > 100 µM | [41] > 100 µM | [42] > 100 µM | [43] > 100 µM | [44] > 100 µM | [58] 78.5 µM | [45] > 100 µM | [47] > 100 µM | [48] > 100 µM | [49] > 100 µM | [59] > 100 µM | [50] > 100 µM | [51] > 100 µM
